Values after ≈ are worked out from the molar mass of the structure shown.
Columns and labels:
Test in all cases: In vitro antibacterial MIC, 96-well broth assay
[1] = system: S. aureus ATCC 29213 (MSSA); type: cell-based, Staphylococcus aureus; conditions: growth by A595 after 24 h, 10^5-10^6 CFU/well; for MIC: Staphylococcus aureus
Method: (§1) In Vitro Antibacterial Activity Determination of Minimum Inhibitory Concentrations (MICs).
(§2) The assays are carried out in 96-well flat-bottom plates. The bacterial suspension from an overnight culture grown in appropriate medium is added to a solution of test compound in water. Final bacterial inoculums are approximately 10^5-10^6 CFU/well. The percent growth of bacteria in test wells relative to that observed for a well containing no compound is determined by measuring absorbance at 595 nm (A595) after 24 h. The MIC (μg/mL) is determined as a range of single compound where the complete inhibition of growth is observed at the higher concentration and cells are viable at the lower concentrations. Tobramycin is used as an antibiotic-positive control in each screening assay for Pseudomonas aeruginosa, Acinetobacter species, Streptococci viridans, Proteus species, Hemophilus influenzae, Citrobacter species, Serratia marcescens, Staphylococcus aureus, Streptococcus pyogenes, Escherichia coli, Enterobacter species, Enterococcus faecalis, Enterococcus faecium Klebsiella pneumoniae and Providencia stuartii.

[2] = system: S. aureus ATCC 33591 (MRSA); type: cell-based, Staphylococcus aureus; conditions: growth by A595 after 24 h, 10^5-10^6 CFU/well; for MIC: Staphylococcus aureus
Method: as §1, §2

E. coli ATCC 25922 = type: cell-based, Escherichia coli; conditions: growth by A595 after 24 h, 10^5-10^6 CFU/well; for MIC: Escherichia coli, ATCC25922
Method: as §1, §2

E. faecalis ATCC 29212 = type: cell-based, Enterococcus faecalis; conditions: growth by A595 after 24 h, 10^5-10^6 CFU/well; for MIC: Enterococcus faecalis, ATCC29212
Method: as §1, §2

P. aeruginosa ATCC 35151 = type: cell-based, Pseudomonas aeruginosa; conditions: growth by A595 after 24 h, 10^5-10^6 CFU/well; for MIC: Pseudomonas aeruginosa, ATCC35151
Method: as §1, §2

P. aeruginosa ATCC 27853 = type: cell-based, Pseudomonas aeruginosa; conditions: growth by A595 after 24 h, 10^5-10^6 CFU/well; for MIC: Pseudomonas aeruginosa, ATCC27853
Method: as §1, §2

P. aeruginosa PAO-1 = type: cell-based, Pseudomonas aeruginosa; conditions: growth by A595 after 24 h, 10^5-10^6 CFU/well; for MIC: Pseudomonas aeruginosa, PAO1
Method: as §1, §2

Molecule	MIC S. aureus ATCC 29213 (MSSA) [1] [µg/mL]	MIC S. aureus ATCC 33591 (MRSA) [2] [µg/mL]	MIC E. coli ATCC 25922 (E. coli ATCC 25922) [µg/mL]	MIC E. faecalis ATCC 29212 (E. faecalis ATCC 29212) [µg/mL]	MIC P. aeruginosa ATCC 35151 (P. aeruginosa ATCC 35151) [µg/mL]	MIC P. aeruginosa ATCC 27853 (P. aeruginosa ATCC 27853) [µg/mL]	MIC P. aeruginosa PAO-1 (P. aeruginosa PAO-1) [µg/mL]	MIC [1] [µg/mL]	MIC [2] [µg/mL]	MIC (E. coli ATCC 25922) [µg/mL]	MIC (E. faecalis ATCC 29212) [µg/mL]	MIC (P. aeruginosa ATCC 35151) [µg/mL]	MIC (P. aeruginosa ATCC 27853) [µg/mL]	MIC (P. aeruginosa PAO-1) [µg/mL]
4-(2,6-diamino-2,3,6-dideoxy-α-D-glucopyranosyl)-6-(2-amino-2-deoxy-4-amino-4-deoxy-α-D-glucopyranosyl)-2-deoxystreptamine [Compound 3c]	1	>64	2	32	1	2	1	–	–	–	–	–	–	–
4-(2,6-diamino-2,3,6-dideoxy-α-D-glucopyranosyl)-6-(4-amino-4-deoxy-1-α-D-glucopyranosyl)-2-deoxystreptamine [Compound 3b]	32	>64	32	>64	16	16	8	–	–	–	–	–	–	–
NC[C@H]1O[C@H](O[C@H]2[C@H](O)[C@@H](O[C@H]3O[C@H](CO)[C@@H](O)[C@H](O)[C@H]3N)[C@H](N)C[C@@H]2N)[C@H](N)C[C@@H]1O [Compound 3a, 4-(2,6-diamino-2,3,6-dideoxy-α-D-glucopyranosyl)-6-(2-amino-2-deoxy-1-α-D-glucopyranosyl)-2-deoxystreptamine]	–	–	–	–	–	–	–	1 (≈ 2.14 µM)	> 64	2 (≈ 4.28 µM)	16 (≈ 34.2 µM)	1 (≈ 2.14 µM)	1 (≈ 2.14 µM)	0.5 (≈ 1.07 µM)
NCC1OC(OC2C(N)CC(N)C(OC3OC(CO)C(O)C(OC4OC(CO)C(O)C(O)C4N)C3N)C2O)C(N)CC1O (stereo not drawn) [Compound 3d, 5-Amino-6-{3-amino-2-[4,6-diamino-3-(3-amino-6-aminomethyl-5-hydroxy-tetrahydro-pyran-2-yloxy)-2-hydroxy-cyclohexyloxy]-5-hydroxy-6-hydroxymethyl-tetrahydro-pyran-4-yloxy}-2-hydroxymethyl-tetrahydro-pyran-3,4-diol]	–	–	–	–	–	–	–	16 (≈ 25.5 µM)	> 64	32 (≈ 50.9 µM)	> 64	16 (≈ 25.5 µM)	64 (≈ 102 µM)	32 (≈ 50.9 µM)
N=C(N)NC[C@H]1O[C@H](O[C@H]2[C@H](O)[C@@H](O[C@H]3O[C@H](CO)[C@@H](O)[C@H](O)[C@H]3N)[C@H](N)C[C@@H]2N)[C@H](N)C[C@@H]1O [Compound 4a, 4-(2-amino-6-guanidinyl-2,3,6-dideoxy-α-D-glucopyranosyl)-6-(2-amino-2-deoxy-1-α-D-glucopyranosyl)-2-deoxystreptamine]	–	–	–	–	–	–	–	64 (≈ 126 µM)	> 64	64 (≈ 126 µM)	> 64	> 64	> 64	64 (≈ 126 µM)
NC[C@H]1O[C@H](O[C@H]2[C@H](O)[C@@H](O[C@H]3O[C@H](CNC4CC4)[C@@H](O)[C@H](N)[C@H]3O)[C@H](N)C[C@@H]2N)[C@H](N)C[C@@H]1O [Compound 9a]	–	–	–	–	–	–	–	8 (≈ 15.8 µM)	8 (≈ 15.8 µM)	32 (≈ 63.2 µM)	> 64	32 (≈ 63.2 µM)	64 (≈ 126 µM)	32 (≈ 63.2 µM)
NC[C@H]1O[C@H](O[C@H]2[C@H](O)[C@@H](OCC(O)CNCCCCNCC(O)CO[C@@H]3[C@@H](O)[C@H](O[C@H]4O[C@H](CN)[C@@H](O)C[C@H]4N)[C@@H](N)C[C@H]3N)[C@H](N)C[C@@H]2N)[C@H](N)C[C@@H]1O (stereo partly drawn) [Compound 13a]	–	–	–	–	–	–	–	0.5 (≈ 0.615 µM)	16 (≈ 19.7 µM)	4 (≈ 4.92 µM)	32 (≈ 39.4 µM)	4 (≈ 4.92 µM)	2 (≈ 2.46 µM)	2 (≈ 2.46 µM)
NCCCCNCC(O)CO[C@@H]1[C@@H](O)[C@H](O[C@H]2O[C@H](CN)[C@@H](O)C[C@H]2N)[C@@H](N)C[C@H]1N (stereo partly drawn) [Compound 14a]	–	–	–	–	–	–	–	8 (≈ 17.8 µM)	> 64	16 (≈ 35.5 µM)	> 64	16 (≈ 35.5 µM)	32 (≈ 71 µM)	16 (≈ 35.5 µM)
NC[C@H]1O[C@H](O[C@H]2[C@H](O)[C@@H](OCCCNCCCCNCCCO[C@@H]3[C@@H](O)[C@H](O[C@H]4O[C@H](CN)[C@@H](O)C[C@H]4N)[C@@H](N)C[C@H]3N)[C@H](N)C[C@@H]2N)[C@H](N)C[C@@H]1O [Compound 18a]	–	–	–	–	–	–	–	4 (≈ 5.12 µM)	32 (≈ 41 µM)	16 (≈ 20.5 µM)	> 64	32 (≈ 41 µM)	16 (≈ 20.5 µM)	8 (≈ 10.2 µM)
NCCCCNCCCO[C@@H]1[C@@H](O)[C@H](O[C@H]2O[C@H](CN)[C@@H](O)C[C@H]2N)[C@@H](N)C[C@H]1N [Compound 19a]	–	–	–	–	–	–	–	> 32	> 32	> 32	> 32	> 32	> 32	> 32
NC[C@H]1O[C@H](O[C@H]2[C@H](OCC(O)CNCCCCNCC(O)CO[C@@H]3[C@@H](O)[C@H](N)C[C@H](N)[C@H]3O[C@H]3O[C@H](CN)[C@@H](O)C[C@H]3N)[C@@H](O)[C@H](N)C[C@@H]2N)[C@H](N)C[C@@H]1O (stereo partly drawn) [Compound 27a]	–	–	–	–	–	–	–	2 (≈ 2.46 µM)	16 (≈ 19.7 µM)	16 (≈ 19.7 µM)	32 (≈ 39.4 µM)	8 (≈ 9.84 µM)	4 (≈ 4.92 µM)	4 (≈ 4.92 µM)
NC[C@H]1O[C@H](O[C@H]2[C@H](O)[C@@H](O[C@H]3O[C@H](CO)[C@@H](O)[C@H](N)[C@H]3O)[C@H](N)C[C@@H]2N)[C@H](N)C[C@@H]1O [Tobramycin, reference compound]	–	–	–	–	–	–	–	0.5 (≈ 1.07 µM)	> 64	1 (≈ 2.14 µM)	16 (≈ 34.2 µM)	0.5 (≈ 1.07 µM)	0.5 (≈ 1.07 µM)	0.25 (≈ 0.535 µM)

From patent US20040058880A1, “Aminoglycoside antibiotics as novel anti-infective agents” (priority 2002, published 2004)
